{
  "source": "ChEMBL document CHEMBL1135835",
  "about": "“Biological activity of the tryprostatins and their diastereomers on human carcinoma cell lines” (2002)",
  "format_in_all_cases": "functional",
  "key": {"[1]": {"system": "MCF7", "experiment": "Growth inhibitory activity against MCF-7 (human breast) cancer cell line at 10 uM dose."}, "[2]": {"system": "NCI-H520", "experiment": "Growth inhibitory activity against H520 (human lung) cancer cell line at 100 uM dose."}, "[3]": {"system": "PC-3", "experiment": "Growth inhibitory activity against PC-3 (human prostate) cancer cell line at 100 uM dose."}, "[4]": {"system": "NCI-H520", "experiment": "Growth inhibitory activity against H520 (human lung) cancer cell line at 10 uM dose"}, "[5]": {"system": "PC-3", "experiment": "Growth inhibitory activity against PC-3 (human prostate) cancer cell line at 10 uM dose."}, "[6]": {"system": "MCF7", "experiment": "Growth inhibitory activity against MCF-7 (human breast) cancer cell line at 100 uM dose."}, "[7]": {"system": "MCF7", "experiment": "Gowth inhibitory activity against MCF-7 (human lbreast) cancer cell line"}, "[8]": {"system": "PC-3", "experiment": "Growth inhibitory activity against PC-3 (human prostate) cancer cell line"}, "[9]": {"system": "NCI-H522", "experiment": "Growth inhibitory activity against NCI-H522 (human lung) cancer cell line"}},
  "data": [
    {"smiles": "COc1ccc2c(C[C@H]3NC(=O)[C@H]4CCCN4C3=O)c(CC=C(C)C)[nH]c2c1", "values": [
      {"measurement": "Cell survival", "setting": "[1]", "result": ">100", "unit": "%"},
      {"measurement": "Cell survival", "setting": "[2]", "result": 75.2, "unit": "%"},
      {"measurement": "Cell survival", "setting": "[3]", "result": 83.7, "unit": "%"},
      {"measurement": "Cell survival", "setting": "[4]", "result": 81.7, "unit": "%"},
      {"measurement": "Cell survival", "setting": "[5]", "result": ">100", "unit": "%"},
      {"measurement": "Cell survival", "setting": "[6]", "result": ">100", "unit": "%"}
    ]},
    {"smiles": "COc1ccc2c(C[C@@H]3NC(=O)[C@@H]4CCCN4C3=O)c(CC=C(C)C)[nH]c2c1", "note": "[TRYPROSTATIN A]", "values": [
      {"measurement": "Cell survival", "setting": "[1]", "result": ">100", "unit": "%"},
      {"measurement": "Cell survival", "setting": "[2]", "result": 79.4, "unit": "%"},
      {"measurement": "Cell survival", "setting": "[3]", "result": 95.6, "unit": "%"},
      {"measurement": "Cell survival", "setting": "[4]", "result": 80.1, "unit": "%"},
      {"measurement": "Cell survival", "setting": "[5]", "result": 99.2, "unit": "%"},
      {"measurement": "Cell survival", "setting": "[6]", "result": 95, "unit": "%"}
    ]},
    {"smiles": "CC(C)=CCc1[nH]c2ccccc2c1C[C@@H]1NC(=O)[C@@H]2CCCN2C1=O", "note": "[TRYPROSTATIN B]", "values": [
      {"measurement": "Cell survival", "setting": "[1]", "result": 88.2, "unit": "%"},
      {"measurement": "Cell survival", "setting": "[2]", "result": 60.5, "unit": "%"},
      {"measurement": "Cell survival", "setting": "[3]", "result": 68.9, "unit": "%"},
      {"measurement": "Cell survival", "setting": "[4]", "result": 77.6, "unit": "%"},
      {"measurement": "Cell survival", "setting": "[5]", "result": 95.5, "unit": "%"},
      {"measurement": "Cell survival", "setting": "[6]", "result": 66.7, "unit": "%"}
    ]},
    {"smiles": "CC(C)=CCc1[nH]c2ccccc2c1C[C@H]1NC(=O)[C@H]2CCCN2C1=O", "values": [
      {"measurement": "Cell survival", "setting": "[1]", "result": ">100", "unit": "%"},
      {"measurement": "Cell survival", "setting": "[2]", "result": 99.8, "unit": "%"},
      {"measurement": "Cell survival", "setting": "[3]", "result": 78.9, "unit": "%"},
      {"measurement": "Cell survival", "setting": "[4]", "result": ">100", "unit": "%"},
      {"measurement": "Cell survival", "setting": "[5]", "result": 95.8, "unit": "%"},
      {"measurement": "Cell survival", "setting": "[6]", "result": ">100", "unit": "%"}
    ]},
    {"smiles": "CC(C)=CCc1[nH]c2ccccc2c1C[C@@H]1NC(=O)[C@H]2CCCN2C1=O", "values": [
      {"measurement": "GI50", "setting": "[7]", "result": 15.9, "unit": "µM"},
      {"measurement": "Cell survival", "setting": "[1]", "result": 73.6, "unit": "%"},
      {"measurement": "Cell survival", "setting": "[2]", "result": 0.1, "unit": "%"},
      {"measurement": "Cell survival", "setting": "[3]", "result": 0.2, "unit": "%"},
      {"measurement": "GI50", "setting": "[8]", "result": 11.9, "unit": "µM"},
      {"measurement": "Cell survival", "setting": "[4]", "result": 88.3, "unit": "%"},
      {"measurement": "GI50", "setting": "[9]", "result": 15.8, "unit": "µM"},
      {"measurement": "Cell survival", "setting": "[5]", "result": 59.3, "unit": "%"},
      {"measurement": "Cell survival", "setting": "[6]", "result": 0, "unit": "%"}
    ]},
    {"smiles": "CC(C)=CCc1[nH]c2ccccc2c1C[C@H]1NC(=O)[C@@H]2CCCN2C1=O", "values": [
      {"measurement": "Cell survival", "setting": "[1]", "result": ">100", "unit": "%"},
      {"measurement": "Cell survival", "setting": "[2]", "result": 76.5, "unit": "%"},
      {"measurement": "Cell survival", "setting": "[3]", "result": 68.5, "unit": "%"},
      {"measurement": "Cell survival", "setting": "[4]", "result": ">100", "unit": "%"},
      {"measurement": "Cell survival", "setting": "[5]", "result": 97.3, "unit": "%"},
      {"measurement": "Cell survival", "setting": "[6]", "result": ">100", "unit": "%"}
    ]},
    {"smiles": "COc1ccc2c(C[C@H]3NC(=O)[C@@H]4CCCN4C3=O)c(CC=C(C)C)[nH]c2c1", "values": [
      {"measurement": "Cell survival", "setting": "[1]", "result": ">100", "unit": "%"},
      {"measurement": "Cell survival", "setting": "[2]", "result": ">100", "unit": "%"},
      {"measurement": "Cell survival", "setting": "[3]", "result": ">100", "unit": "%"},
      {"measurement": "Cell survival", "setting": "[4]", "result": ">100", "unit": "%"},
      {"measurement": "Cell survival", "setting": "[5]", "result": ">100", "unit": "%"},
      {"measurement": "Cell survival", "setting": "[6]", "result": ">100", "unit": "%"}
    ]},
    {"smiles": "COc1ccc2c(C[C@@H]3NC(=O)[C@H]4CCCN4C3=O)c(CC=C(C)C)[nH]c2c1", "values": [
      {"measurement": "Cell survival", "setting": "[1]", "result": ">100", "unit": "%"},
      {"measurement": "Cell survival", "setting": "[2]", "result": 98.5, "unit": "%"},
      {"measurement": "Cell survival", "setting": "[3]", "result": ">100", "unit": "%"},
      {"measurement": "Cell survival", "setting": "[4]", "result": 99.3, "unit": "%"},
      {"measurement": "Cell survival", "setting": "[5]", "result": ">100", "unit": "%"},
      {"measurement": "Cell survival", "setting": "[6]", "result": 99, "unit": "%"}
    ]}
  ]
}
